Test results taken from publication PMC5130005, “Indolin-2-one compounds targeting thioredoxin reductase as potential anticancer drug leads” (Oncotarget, 2016).

Assays:
MCF-7 cells = experiment: MTT cell viability assay, MCF-7 cells; assay type: cell-based; conditions: Homo sapiens, MCF7, 72 h, mean ± SD of 3 experiments; for GI50: read-out: GI50 (50% growth inhibition concentration), MCF-7 cells; for CC50: read-out: LC50 (50% lethal concentration), MCF-7 cells
Experimental: (§1) HCT 116 and MCF-7 cells were seeded in 96-well plates at a density of 1 × 10^4 cells/well and allowed to grow for 20-24 h before addition of test compounds. DMSO stocks of indolin-2-one compounds were serially diluted in medium each time an assay was performed. Cell viability was determined at the time of compound addition (time 0) and after 72 h of compound treatment by reduction of 3-(4,5-dimethylthiazol-2-yl)-2,5-diphenyltetrazolium bromide (MTT) by dehydrogenases in viable cells. MTT was added into each well (final concentration 400 μg/ml) and the plates were incubated for 4 h at 37°C. The supernatants were aspirated and upon solubilization of the formed formazan crystals in DMSO:glycine buffer pH 10.5 (ratio 4:1), absorbance at 550 nm was measured. 50% growth inhibition concentrations (GI50) and 50% lethal concentrations (LC50) values were calculated.

recombinant rat TrxR [1] = target: T1, recombinant rat TrxR (Rattus norvegicus, UniProt O89049); experiment: in vitro TrxR DTNB reduction assay; assay type: biochemical; conditions: 30 min incubation, 100 nM recombinant rat TrxR, 200 μM NADPH, read-out: TrxR inhibition IC50
T1 construct: made in house
T1 sequence (O89049 1-499): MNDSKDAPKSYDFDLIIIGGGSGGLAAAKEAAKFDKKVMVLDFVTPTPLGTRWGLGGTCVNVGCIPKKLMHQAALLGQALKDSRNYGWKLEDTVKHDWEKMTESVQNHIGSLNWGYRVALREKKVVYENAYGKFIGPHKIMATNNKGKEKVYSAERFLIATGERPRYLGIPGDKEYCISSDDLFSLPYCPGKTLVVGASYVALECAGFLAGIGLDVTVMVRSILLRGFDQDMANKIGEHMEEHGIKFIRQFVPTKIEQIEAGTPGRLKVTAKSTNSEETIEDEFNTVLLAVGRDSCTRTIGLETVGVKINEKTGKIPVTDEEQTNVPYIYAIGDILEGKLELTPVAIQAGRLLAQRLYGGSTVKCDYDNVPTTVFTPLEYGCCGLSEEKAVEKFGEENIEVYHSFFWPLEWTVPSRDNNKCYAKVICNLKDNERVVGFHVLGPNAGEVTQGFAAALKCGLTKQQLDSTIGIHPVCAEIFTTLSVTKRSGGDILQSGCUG
Experimental: In a volume of 100 μl of 50 mM Tris-HCl pH 7.5, 2 mM EDTA buffer (TE buffer), compounds of concentrations 1-100 μM were incubated with 100 nM recombinant rat TrxR and 200 μM NADPH at room temperature in 96-well plates for 30 and 60 min. The incubation was terminated by addition of 100 μl per well of 10 mM DTNB, 200 μM NADPH solution in TE buffer and immediately followed by measurement of linear increase of absorbance at 412 nm for the initial 2 min using the VersaMax microplate reader (Molecular Devices). The results were expressed as % of TrxR activity of drug-treated sample over that of DMSO control. The 50% inhibition concentration (IC50) values were calculated.

HCT 116 cells = experiment: MTT cell viability assay, HCT 116 cells; assay type: cell-based; conditions: Homo sapiens, 72 h, mean ± SD of 3 experiments; for GI50: read-out: GI50 (50% growth inhibition concentration), HCT 116 cells
Experimental: as §1

recombinant rat TrxR [2] = target: T1, recombinant rat TrxR; experiment: NADPH oxidase activity of recombinant rat TrxR (substrate test); assay type: biochemical; conditions: 8 μM juglone, 15 nM TrxR, 250 μM NADPH, 20 min
Experimental: In a volume of 198 μl of 15 nM recombinant rat TrxR and 250 μM NADPH in TE buffer, 2 μl of diluted DMSO stocks of juglone and compounds 4 and 5 was added to final concentrations of 8 μM (for julgone) and 100 μM (for compounds 4 and 5). The consumption of NADPH was immediately monitored at 340 nm for 20 min using the VersaMax microplate reader. The linear decrease in NADPH absorbance was used for calculating NADPH consumption and expressed as % of activity of drug-treated sample over that of DMSO-treated sample.

Compound `CCN1C(=O)/C(=C/C(C)=O)c2ccccc21` [Compound 2] has a GI50 (MCF-7 cells) of 7.9 ± 1.7 µM, a CC50 (MCF-7 cells) of 25 ± 1.6 µM and an IC50 (recombinant rat TrxR [1]) of 10.2 ± 1.8 µM. It also gave an LC50 (50% lethal concentration) (HCT 116 cells) of 9.7 ± 0.1 µM and a GI50 (HCT 116 cells) of 4.2 ± 0.5 µM.
`CC(=O)/C=C1/C(=O)N(C(C)C)c2ccccc21` [Compound 3] was tested, and the GI50 (MCF-7 cells) was 7.1 ± 0.6 µM, the CC50 (MCF-7 cells) was 22.4 ± 0.6 µM and the IC50 (recombinant rat TrxR [1]) was 15 ± 1.4 µM. It also gave an LC50 (50% lethal concentration) (HCT 116 cells) of 9.8 ± 0.1 µM and a GI50 (HCT 116 cells) of 5.3 ± 0.1 µM.
In the case of `Cc1ccccc1C(=O)/C=C1/C(=O)N(C)c2ccccc21` [Compound 7], the GI50 (MCF-7 cells) is reported as 17.3 ± 4.6 µM, the CC50 (MCF-7 cells) is reported as 27.9 ± 1.5 µM and the IC50 (recombinant rat TrxR [1]) is reported as 19 ± 2.4 µM. The LC50 (50% lethal concentration) (HCT 116 cells) was 27.8 ± 0.8 µM and the GI50 (HCT 116 cells) was 12.4 ± 2.1 µM.
In the case of `Cc1cccc(C(=O)/C=C2/C(=O)N(C)c3ccccc32)c1` [Compound 8], the GI50 (MCF-7 cells) is reported as 14 ± 0.6 µM, the CC50 (MCF-7 cells) is reported as 27.9 ± 0.6 µM and the IC50 (recombinant rat TrxR [1]) is reported as 22.5 ± 0.4 µM. The LC50 (50% lethal concentration) (HCT 116 cells) was 28 ± 1 µM and the GI50 (HCT 116 cells) was 10.4 ± 2.6 µM.
In the case of `Cc1ccc(C(=O)/C=C2/C(=O)N(C)c3ccccc32)cc1` [Compound 9], the GI50 (MCF-7 cells) is reported as 10.5 ± 0.8 µM, the CC50 (MCF-7 cells) is reported as 28.4 ± 0.8 µM and the IC50 (recombinant rat TrxR [1]) is reported as 21.6 ± 4.4 µM. The LC50 (50% lethal concentration) (HCT 116 cells) was 28.6 ± 0.8 µM and the GI50 (HCT 116 cells) was 10.5 ± 1.2 µM.
With `CCc1ccc(C(=O)/C=C2/C(=O)N(C)c3ccccc32)cc1` [Compound 10] the GI50 (MCF-7 cells) was 10.4 ± 0.6 µM, the CC50 (MCF-7 cells) was 30.4 ± 6.2 µM and the IC50 (recombinant rat TrxR [1]) was 19.1 ± 0.4 µM. It also gave an LC50 (50% lethal concentration) (HCT 116 cells) of 28.8 ± 1.1 µM and a GI50 (HCT 116 cells) of 11.9 ± 1.1 µM.
Compound `CC(C)c1ccc(C(=O)/C=C2/C(=O)N(C)c3ccccc32)cc1` [Compound 11] has a GI50 (MCF-7 cells) of 10.5 ± 1.7 µM, a CC50 (MCF-7 cells) of 27 ± 0.4 µM and an IC50 (recombinant rat TrxR [1]) of 25.2 ± 5.4 µM. For the same compound, the LC50 (50% lethal concentration) (HCT 116 cells) was 26.7 ± 1.7 µM and the GI50 (HCT 116 cells) was 14.4 ± 1.8 µM.
In the case of `CCCCc1ccc(C(=O)/C=C2/C(=O)N(C)c3ccccc32)cc1` [Compound 12], the GI50 (MCF-7 cells) is reported as 16.5 ± 4 µM, the CC50 (MCF-7 cells) is reported as 81.2 ± 9.7 µM and the IC50 (recombinant rat TrxR [1]) is reported as over 100 µM. For the same compound, the LC50 (50% lethal concentration) (HCT 116 cells) was 26.7 ± 0.8 µM and the GI50 (HCT 116 cells) was 13.5 ± 2.6 µM.
Work on `CN1C(=O)/C(=C/C(=O)c2ccc(F)cc2)c2ccccc21` [Compound 13] yielded a GI50 (MCF-7 cells) of 12.5 ± 2.4 µM, a CC50 (MCF-7 cells) of 28.6 ± 1.2 µM and an IC50 (recombinant rat TrxR [1]) of 18.7 ± 3.56 µM. For the same compound, the LC50 (50% lethal concentration) (HCT 116 cells) was 29 ± 1.4 µM and the GI50 (HCT 116 cells) was 11.9 ± 0.5 µM.
In the case of `CN1C(=O)/C(=C/C(=O)c2cccc(Cl)c2)c2ccccc21` [Compound 14], the GI50 (MCF-7 cells) is reported as 23 ± 4.5 µM, the CC50 (MCF-7 cells) is reported as 84.3 ± 5.8 µM and the IC50 (recombinant rat TrxR [1]) is reported as 18.4 ± 2.2 µM. It also gave an LC50 (50% lethal concentration) (HCT 116 cells) of 26.9 ± 1.5 µM and a GI50 (HCT 116 cells) of 15.6 ± 1.1 µM.
Work on `CN1C(=O)/C(=C/C(=O)c2ccc(Cl)cc2)c2ccccc21` [Compound 15] yielded a GI50 (MCF-7 cells) of 20.9 ± 3 µM, a CC50 (MCF-7 cells) of 92 ± 1.2 µM and an IC50 (recombinant rat TrxR [1]) of 16.9 ± 3.4 µM. It also gave an LC50 (50% lethal concentration) (HCT 116 cells) of 28.6 ± 1.4 µM and a GI50 (HCT 116 cells) of 12.4 ± 2.8 µM.
Work on `CN1C(=O)/C(=C/C(=O)c2ccccc2C(F)(F)F)c2ccccc21` [Compound 16] yielded a GI50 (MCF-7 cells) of 15.8 ± 1 µM, a CC50 (MCF-7 cells) of 27.7 ± 1.9 µM and an IC50 (recombinant rat TrxR [1]) of 28.9 ± 0.2 µM. For the same compound, the LC50 (50% lethal concentration) (HCT 116 cells) was 27.7 ± 3.1 µM and the GI50 (HCT 116 cells) was 19.5 ± 1.3 µM.
`CN1C(=O)/C(=C/C(=O)c2cccc(C(F)(F)F)c2)c2ccccc21` [Compound 17] gave a GI50 (MCF-7 cells) of 17.9 ± 0.4 µM, a CC50 (MCF-7 cells) of 89.6 ± 3.6 µM and an IC50 (recombinant rat TrxR [1]) of 34.2 ± 18.2 µM. It also gave an LC50 (50% lethal concentration) (HCT 116 cells) of 26.2 ± 2.1 µM and a GI50 (HCT 116 cells) of 16.1 ± 2.2 µM.
`CN1C(=O)/C(=C/C(=O)c2ccc(C(F)(F)F)cc2)c2ccccc21` [Compound 18] was tested, and the GI50 (MCF-7 cells) was 44.4 ± 0.1 µM, the CC50 (MCF-7 cells) was 89.8 ± 5.1 µM and the IC50 (recombinant rat TrxR [1]) was over 100 µM. It also gave an LC50 (50% lethal concentration) (HCT 116 cells) of 90.5 ± 7.3 µM and a GI50 (HCT 116 cells) of 15.7 ± 1.7 µM.
`CN1C(=O)/C(=C\C(=O)c2ccc(Cl)cc2)c2ccccc21` [Compound 20] gave a GI50 (MCF-7 cells) of 20.4 ± 3.5 µM, a CC50 (MCF-7 cells) of 91.7 ± 2 µM and an IC50 (recombinant rat TrxR [1]) of 15.9 ± 2.9 µM. For the same compound, the LC50 (50% lethal concentration) (HCT 116 cells) was 28.7 ± 2.4 µM and the GI50 (HCT 116 cells) was 16.1 ± 2.4 µM.
For `O=C1C=CC(=O)c2c(O)cccc21` [juglone], the “rate of NADPH consumption of recombinant TrxR” value (recombinant rat TrxR [2]) was “markedly increased”.
